Experimental data reported in article PMC10385664, “Projection of Target Drug Particle Size in Oral Formulations Using the Refined Developability Classification System (rDCS)” (Pharmaceutics, 2023).
Converted amounts (≈) assume the structure as drawn. Like-named read-outs stand apart in the source and are kept apart here.

Columns and labels:
[1] = Shake-flask equilibrium solubility in FaSSIF V1; assay type: physicochemical; details: for solubility thermodynamic at 24 h: pH 6.5, thermodynamic from solid, FaSSIF V1, pH 6.50 ± 0.05, 37 °C, read-out: CS FaSSIF V1 (thermodynamic solubility)
Method: Equilibrium solubilities of the three APIs in FaSSIF V1 were measured with the shake-flask method, following the ICH M9 guideline on BCS-based biowaivers. Briefly, an excess amount of each API was weighed into a 5 mL vial and the assay medium (FaSSIF V1) was added. The resulting suspensions were incubated at 37.0 ± 0.5 °C (Memmert Incubator IN750, Memmert GmbH + Co. KG, Schwabach, Germany) and agitated for 24 h at 25 rpm (LABINCO LD76 Digital Rotary Mixer, Labinco BV, Breda, The Netherlands). At 2, 4, 6 and 24 h, samples were drawn and filtered through Acrodisc 13 mm with 0.45 µm PTFE filters (Pall Corporation, Port Washington, NY, USA) after establishing that adsorption of the APIs onto the filters was less than 5%. Before sampling, the suspensions were checked visually for the presence of solid particles and the pH was measured (Metrohm 780 pH Meter, Metrohm AG, Herisau, Switzerland). All measured pH values were within the specified range of pH 6.50 ± 0.05, so no pH adjustment was necessary. The filtrates were diluted with a 1:1 mixture of ACN and Milli-Q water for analysis using ultra-performance liquid chromatography with UV detection (UPLC-UV).
XRPD patterns of the residual solids were compared to the starting material and literature profiles. A differential scanning calorimetry (DSC) analysis of the input materials was additionally performed. Istradefylline samples were protected from light in all studies using amber vials and aluminum foil to prevent photolysis. The experimental details of the UPLC-UV methods and solid state analyses can be found in Supplementary Materials.
The solubility experiments were performed in triplicate (n = 3) and solubilities are presented as means (± SD). The mean values were used as input for the rDCS and rtarget calculations.
S.2.4. rDCS Standard Investigations: Solubility Studies
Samples from the solubility studies were analyzed with UPLC‐UV analysis. For voriconazole and lemborexant a Waters Acquity UPLC System consisting of a sample manager, a binary solvent manager, and a PDA detector was used (Waters Corporation, Milford, USA). For istradefylline a Waters Acquity UPLC H‐Class System consisting of a sample manager, a quarternary solvent manager, and a PDA detector was used (Waters Corporation, Milford, MA , USA). The chromatograms were recorded and processed using the software Empower® version 3.0. Representative chromatograms for each API are shown in […]
the FaSSIF V1 solubility study were collected and examined using X‐ray powder diffraction (XRPD) analysis to detect solution‐mediated solid state changes. After 24 h, 1 to 5 mg of the residual solid was collected, pl aced on a zero‐background holder and allowed to sit at room temperature for 2 h. […]

[2] = cited from earlier work

Row | Structure (SMILES) | solubility thermodynamic at 24 h [1] | Literature pKa ([2]; estimated by capillary electrophoresis) | Literature pKa ([2]; basic pKa, method not disclosed) | solubility at 24 h ([1]; pH 6.5, Excel template input, FaSSIF V1, read-out: Estimate of intestinal solubility (CS)) | Literature pKa ([2]; basic pKa, triazole moiety, method not disclosed)
1 | Cc1ncc(OC[C@@]2(c3cccc(F)c3)C[C@H]2C(=O)Nc2ccc(F)cn2)c(C)n1 [Lemborexant, lemborexant] | 23.3 ± 0.1 µg/mL (≈ 56.8 µM) | <3.50 [33] | – | – | –
2 | CCn1c(=O)c2c(nc(/C=C/c3ccc(OC)c(OC)c3)n2C)n(CC)c1=O [Istradefylline, istradefylline] | 3.59 ± 0.05 µg/mL (≈ 9.34 µM) | – | 0.78 ^3 [31, 34] | – | –
3 | C[C@@H](c1ncncc1F)[C@](O)(Cn1cncn1)c1ccc(F)cc1F [Voriconazole, voriconazole] | 827 ± 6 µg/mL (≈ 2370 µM) | – | – | 827 µg/mL (≈ 2370 µM) | 1.76 ^3 [32]
